Read-outs that look alike come from different tables or passages of the source.
What was measured:
Test in all cases: Test F pre-/postemergence plant response
Type in all cases: in vivo
[1] = tested on: Brazilian crabgrass (Digitaria horizontalis); conditions: Digitaria horizontalis, scale 0 to 100, read-out: Plant response rating, Crabgrass, Brazil
In short: (§1)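 Formulation: non-phytotoxic solvent mix + surfactant. Preemergence: applied to seeded silt loam. Postemergence: foliar, 1- to 4-leaf plants, 2–18 cm. Greenhouse hold 14–21 days; visual score vs controls, 0 = no effect, 100 = complete control; dash = not tested.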

[2] = tested on: Italian ryegrass (Lolium multiflorum); conditions: Lolium multiflorum, scale 0 to 100, read-out: Plant response rating, Ryegrass, Italian; for pest or weed control at 16 g/ha: 16 g ai/ha; for pest or weed control at 31 g/ha: 31 g ai/ha; for pest or weed control at 125 g/ha: 125 g ai/ha
In short: as §1

[3] = tested on: barnyardgrass (Echinochloa crus-galli); conditions: Echinochloa crus-galli, scale 0 to 100, read-out: Plant response rating, Barnyardgrass
In short: as §1

[4] = tested on: dayflower (Virginia (VA) dayflower, Commelina virginica); conditions: Commelina virginica, scale 0 to 100, read-out: Plant response rating, Dayflower, VA
In short: as §1

[5] = tested on: green foxtail (Setaria viridis); conditions: Setaria viridis, pre-emergence, Preemergence, scale 0 to 100, read-out: Plant response rating, Foxtail, Green
In short: as §1

[6] = tested on: hairy beggarticks (Bidens pilosa); conditions: Bidens pilosa, scale 0 to 100, read-out: Plant response rating, Beggarticks
In short: as §1

[7] = tested on: johnsongrass (Sorghum halepense); conditions: Sorghum halepense, pre-emergence, scale 0 to 100, read-out: Plant response rating, Johnsongrass
In short: as §1

[8] = tested on: lambsquarters (Chenopodium album); conditions: Chenopodium album, pre-emergence, Preemergence, scale 0 to 100, read-out: Plant response rating, Lambsquarters
In short: as §1

[9] = tested on: large (Lg) crabgrass (Digitaria sanguinalis); conditions: Digitaria sanguinalis, pre-emergence, scale 0 to 100, read-out: Plant response rating, Crabgrass, Large
In short: as §1

[10] = tested on: morningglory (Ipomoea coccinea); conditions: Ipomoea, pre-emergence, scale 0 to 100, read-out: Plant response rating, Morningglory
In short: as §1

[11] = tested on: nightshade (eastern black nightshade, Solanum ptycanthum); conditions: Solanum, pre-emergence, scale 0 to 100, read-out: Plant response rating, Nightshade
In short: as §1

[12] = tested on: ragweed (common ragweed, Ambrosia elatior); conditions: Ambrosia artemisiifolia, scale 0 to 100, read-out: Plant response rating, Ragweed
In short: as §1

[13] = tested on: sandbur (southern sandbur, Cenchrus echinatus); conditions: Cenchrus echinatus, scale 0 to 100, read-out: Plant response rating, Sandbur
In short: as §1

[14] = tested on: waterhemp (common waterhemp, Amaranthus rudis); conditions: Amaranthus tuberculatus, scale 0 to 100, read-out: Plant response rating, Waterhemp
In short: as §1

[15] = tested on: wild poinsettia (Euphorbia heterophylla); conditions: Euphorbia heterophylla, scale 0 to 100, read-out: Plant response rating, Poinsettia, Wild
In short: as §1

[16] = tested on: yellow nutsedge (Cyperus esculentus); conditions: Cyperus, pre-emergence, scale 0 to 100, read-out: Plant response rating, Nutsedge, Yellow
In short: as §1

[17] = post-emergence, 16 g ai/ha Postemergence
[18] = post-emergence, 31 g ai/ha Postemergence
[19] = post-emergence, 62 g ai/ha Postemergence
[20] = post-emergence, 125 g ai/ha Postemergence
[21] = pre-emergence, 16 g ai/ha Preemergence
[22] = pre-emergence, 31 g ai/ha Preemergence
[23] = pre-emergence, 62 g ai/ha Preemergence
[24] = pre-emergence, 125 g ai/ha Preemergence

Q: How did the pest or weed control at 16 g/ha [1, 17] turn out when Fc1cccc(Oc2ncc(Cl)cn2)c1-c1cc(C(F)F)no1 [Compound 144, 5-chloro-2-[2-[3-(difluoromethyl)-5-isoxazolyl]-3-fluorophenoxy]pyrimidine] was run?
A: 40%

Q: And the pest or weed control at 31 g/ha [1, 18]?
A: 50%

Q: And the pest or weed control at 62 g/ha [1, 19]?
A: 40%

Q: What about the pest or weed control at 125 g/ha [1, 20] of the same compound?
A: 55%

Q: What about the pest or weed control at 16 g/ha [1, 21] of the same compound?
A: 75%

Q: And the pest or weed control at 31 g/ha [1, 22]?
A: 95%

Q: And the pest or weed control at 62 g/ha [1, 23]?
A: 98%

Q: What about the pest or weed control at 125 g/ha [1, 24] of the same compound?
A: 100%

Q: And the pest or weed control at 16 g/ha ([2]; post-emergence, Postemergence)?
A: 10%

Q: What about the pest or weed control at 31 g/ha ([2]; post-emergence, Postemergence) of the same compound?
A: 20%

Q: And the pest or weed control at 62 g/ha ([2]; post-emergence, 62 g ai/ha, Postemergence)?
A: 20%

Q: What about the pest or weed control at 125 g/ha ([2]; post-emergence, Postemergence) of the same compound?
A: 40%

Q: And the pest or weed control at 16 g/ha ([2]; pre-emergence, Preemergence)?
A: 0%

Q: And the pest or weed control at 31 g/ha ([2]; pre-emergence, Preemergence)?
A: 0%

Q: What about the pest or weed control at 125 g/ha ([2]; pre-emergence, Preemergence) of the same compound?
A: 100%

Q: And the pest or weed control at 62 g/ha ([2]; pre-emergence, Preemergence)?
A: 40%

Q: What about the pest or weed control at 16 g/ha [3, 17] of the same compound?
A: 10%

Q: What about the pest or weed control at 31 g/ha [3, 18] of the same compound?
A: 30%

Q: And the pest or weed control at 62 g/ha [3, 19]?
A: 50%

Q: And the pest or weed control at 125 g/ha [3, 20]?
A: 75%

Q: What about the pest or weed control at 16 g/ha [3, 21] of the same compound?
A: 0%

Q: And the pest or weed control at 31 g/ha [3, 22]?
A: 20%

Q: What about the pest or weed control at 62 g/ha [3, 23] of the same compound?
A: 70%

Q: What about the pest or weed control at 125 g/ha [3, 24] of the same compound?
A: 100%

Q: What about the pest or weed control at 16 g/ha [4, 17] of the same compound?
A: 50%

Q: And the pest or weed control at 31 g/ha [4, 18]?
A: 50%

Q: And the pest or weed control at 62 g/ha [4, 19]?
A: 60%

Q: And the pest or weed control at 125 g/ha [4, 20]?
A: 85%

Q: And the pest or weed control at 16 g/ha [4, 21]?
A: 0%

Q: And the pest or weed control at 31 g/ha [4, 22]?
A: 30%

Q: And the pest or weed control at 62 g/ha [4, 23]?
A: 85%

Q: What about the pest or weed control at 125 g/ha [4, 24] of the same compound?
A: 95%

Q: And the pest or weed control at 16 g/ha ([5]; 16 g ai/ha)?
A: 25%

Q: And the pest or weed control at 31 g/ha ([5]; 31 g ai/ha)?
A: 95%

Q: And the pest or weed control at 125 g/ha ([5]; 125 g ai/ha)?
A: 100%

Q: What about the pest or weed control at 62 g/ha [5] of the same compound?
A: 98%

Q: And the pest or weed control at 16 g/ha [6, 17]?
A: 70%

Q: What about the pest or weed control at 31 g/ha [6, 18] of the same compound?
A: 60%

Q: What about the pest or weed control at 62 g/ha [6, 19] of the same compound?
A: 70%

Q: And the pest or weed control at 125 g/ha [6, 20]?
A: 75%

Q: What about the pest or weed control at 16 g/ha [6, 21] of the same compound?
A: 0%

Q: And the pest or weed control at 31 g/ha [6, 22]?
A: 0%

Q: And the pest or weed control at 62 g/ha [6, 23]?
A: 0%

Q: What about the pest or weed control at 125 g/ha [6, 24] of the same compound?
A: 0%

Q: And the pest or weed control at 16 g/ha ([7]; 16 g ai/ha Preemergence)?
A: 0%

Q: And the pest or weed control at 31 g/ha ([7]; 31 g ai/ha Preemergence)?
A: 0%

Q: And the pest or weed control at 125 g/ha ([7]; 125 g ai/ha Preemergence)?
A: 70%

Q: What about the pest or weed control at 62 g/ha ([7]; Preemergence) of the same compound?
A: 30%

Q: What about the pest or weed control at 16 g/ha ([8]; 16 g ai/ha) of the same compound?
A: 100%

Q: And the pest or weed control at 31 g/ha ([8]; 31 g ai/ha)?
A: 100%

Q: What about the pest or weed control at 125 g/ha ([8]; 125 g ai/ha) of the same compound?
A: 100%

Q: What about the pest or weed control at 62 g/ha [8] of the same compound?
A: 100%

Q: And the pest or weed control at 16 g/ha ([9]; 16 g ai/ha Preemergence)?
A: 80%

Q: What about the pest or weed control at 31 g/ha ([9]; 31 g ai/ha Preemergence) of the same compound?
A: 100%

Q: And the pest or weed control at 62 g/ha ([9]; 62 g ai/ha Preemergence)?
A: 100%

Q: What about the pest or weed control at 125 g/ha ([9]; 125 g ai/ha Preemergence) of the same compound?
A: 100%

Q: What about the pest or weed control at 16 g/ha ([10]; 16 g ai/ha Preemergence) of the same compound?
A: 0%

Q: And the pest or weed control at 31 g/ha ([10]; 31 g ai/ha Preemergence)?
A: 0%

Q: And the pest or weed control at 125 g/ha ([10]; 125 g ai/ha Preemergence)?
A: 95%

Q: What about the pest or weed control at 62 g/ha ([10]; Preemergence) of the same compound?
A: 65%

Q: What about the pest or weed control at 16 g/ha ([11]; 16 g ai/ha Preemergence) of the same compound?
A: 98%

Q: What about the pest or weed control at 31 g/ha ([11]; 31 g ai/ha Preemergence) of the same compound?
A: 98%

Q: What about the pest or weed control at 125 g/ha ([11]; 125 g ai/ha Preemergence) of the same compound?
A: 100%

Q: What about the pest or weed control at 62 g/ha ([11]; Preemergence) of the same compound?
A: 100%

Q: What about the pest or weed control at 16 g/ha [12, 17] of the same compound?
A: 50%

Q: What about the pest or weed control at 31 g/ha [12, 18] of the same compound?
A: 50%

Q: And the pest or weed control at 62 g/ha [12, 19]?
A: 85%

Q: And the pest or weed control at 125 g/ha [12, 20]?
A: 90%

Q: And the pest or weed control at 16 g/ha [12, 21]?
A: 0%

Q: And the pest or weed control at 31 g/ha [12, 22]?
A: 0%

Q: What about the pest or weed control at 125 g/ha [12, 24] of the same compound?
A: 85%

Q: What about the pest or weed control at 62 g/ha ([12]; pre-emergence, Preemergence) of the same compound?
A: 95%

Q: And the pest or weed control at 16 g/ha [13, 17]?
A: 10%

Q: And the pest or weed control at 31 g/ha [13, 18]?
A: 15%

Q: What about the pest or weed control at 62 g/ha [13, 19] of the same compound?
A: 20%

Q: What about the pest or weed control at 125 g/ha [13, 20] of the same compound?
A: 20%

Q: What about the pest or weed control at 16 g/ha [13, 21] of the same compound?
A: 0%

Q: What about the pest or weed control at 31 g/ha [13, 22] of the same compound?
A: 10%

Q: What about the pest or weed control at 125 g/ha [13, 24] of the same compound?
A: 95%

Q: What about the pest or weed control at 62 g/ha ([13]; pre-emergence, Preemergence) of the same compound?
A: 50%

Q: What about the pest or weed control at 16 g/ha [14, 17] of the same compound?
A: 100%

Q: And the pest or weed control at 31 g/ha [14, 18]?
A: 100%

Q: What about the pest or weed control at 62 g/ha [14, 19] of the same compound?
A: 100%

Q: What about the pest or weed control at 125 g/ha [14, 20] of the same compound?
A: 100%

Q: What about the pest or weed control at 16 g/ha [14, 21] of the same compound?
A: 98%

Q: And the pest or weed control at 31 g/ha [14, 22]?
A: 100%

Q: What about the pest or weed control at 125 g/ha [14, 24] of the same compound?
A: 100%

Q: And the pest or weed control at 62 g/ha ([14]; pre-emergence, Preemergence)?
A: 100%

Q: And the pest or weed control at 16 g/ha [15, 17]?
A: 50%

Q: And the pest or weed control at 31 g/ha [15, 18]?
A: 50%

Q: And the pest or weed control at 62 g/ha [15, 19]?
A: 70%

Q: And the pest or weed control at 125 g/ha [15, 20]?
A: 65%

Q: And the pest or weed control at 16 g/ha [15, 21]?
A: 0%

Q: What about the pest or weed control at 31 g/ha [15, 22] of the same compound?
A: 0%

Q: What about the pest or weed control at 125 g/ha [15, 24] of the same compound?
A: 35%

Q: And the pest or weed control at 62 g/ha ([15]; pre-emergence, Preemergence)?
A: 20%

Q: And the pest or weed control at 16 g/ha ([16]; 16 g ai/ha Preemergence)?
A: 0%

Q: What about the pest or weed control at 31 g/ha ([16]; 31 g ai/ha Preemergence) of the same compound?
A: 0%

Q: And the pest or weed control at 125 g/ha ([16]; 125 g ai/ha Preemergence)?
A: 0%

Q: And the pest or weed control at 62 g/ha ([16]; Preemergence)?
A: 0%

From patent US10131652B2, “Pyrimidinyloxy benzene derivatives as herbicides” (E. I. DU PONT DE NEMOURS AND COMPANY, priority 2014, dated 2018)
